For orientation: LD50 means the dose at which mortality reaches 50%. For orientation: ED50 means the midpoint of the dose-response relation.

From patent US4775676A, “Thiazolidine derivatives, process for their preparation and pharmaceutical compositions” (Chiesi Farmaceutici S.p.A., priority 1985, dated 1988) come the findings set out here.

Where a name gives a salt, the structure may show the parent alone.

One data set concerns porcine gastric mucine. Nature of the data set: "In vitro" mucolytic activity (viscoelasticity of porcine gastric mucine). Type of data set: biochemical. The settings on record: 6% porcine gastric mucine, 25° C., 30 minutes, 0.075 Hz, versus control. The method, then: "In vitro" mucolytic activity
Control samples were similarly added with the vehicle only. After incubation at 25° C. for 30 minutes, the analysis of the rheologic characteristics was carried out by means of Contraves Low-Shear 30 sinus viscosimeter provided with an oscillating device for the study of the viscoelasticity. The dynamic measurements of the viscoelasticity were carried out at a single frequency (0.075 Hz), using an appropriate concentrical cylinder measurement system, particularly suited for bronchial mucus (Contraves MS-LS 1-1).
The rheogramm was recorded on X/Y Rikadenki 11T recorder and the […] determination was carried out by means of vectorial calculation.
The percent decreases versus control samples, reported in Table 1, were determined from the means of the values of said parameters (at least 7 replications per sample).

The test system of another data set is respiratory tract. Nature of the data set: Mucosecretodynamic activity, "in vivo" fluorescein test. Further details: species or system male IVA-NMRI (SPF) mice. The settings on record: mice, p.o., 90 minutes before i.v. fluorescein, increase of fluorescein excretion; for ED50: Mus musculus, po. The method, then: Mucosecretodynamic activity
Male IVA-NMRI (SPF) mice, housed for at least 1 week under standard conditions, fasted (water ad libitum) for 18 hours before treatment, were used.
The compounds, dissolved or suspended in 20 ml/kg of a 0.2% Tween® 80 aqueous suspension, were administred orally 90 minutes before the intravenous injection of 1% (5 ml/kg) fluorescein. Animals treated p.o. with the only vehicle were used as a control group. After 30 minutes from the fluorescein injection the animals were killed and subjected to incannulation of the trachea. Then the respiratory tract was washed and the spectrophotometric dosage of the fluorescein was carried out against phosphate buffer on the so collected eluate, suitably diluted with phosphate buffer and centrifugated.
The amount of fluorescein was determined by means of a calibration curve prepared under the same experimental conditions and the excretion was expressed as ng/hour/10 g body weight. For each experimental session the percent increases of excretion versus controls were calculated.

In a further data set the test system is mice. Nature of the data set: Toxicity after single administration. Type of data set: in vivo. The note with it: p.o., death-rate after 7 days. The method, then:
(§1) Toxicity after single administration
(§2) IVA:NMRI (SPF) mice, fasted for 18 hours before treatment with water ad libitum, were used. The compounds, dissolved or suspended in a 0.2% Tween® 80 aqueous solution, were administered orally, at constant concentration (10%). According to the death-rate observed after 7 days from treatment, the approximate LD50 values, reported in Table 1, were interpolated on Probi ts chart.

Data set [1] is described as follows: Toxicity after single administration. Format: in vivo. The settings on record: mouse, in vivo, po, mice, p.o., death-rate after 7 days, read-out: Acute toxicity LD50 approx. The method, then:
as §1, §2

In the case of “4-methyl-2-[(3-thiazolidyl)carbonyl]-cyclohexane-carboxylic acid lysine salt [Compound 11]”, in the data set with porcine gastric mucine, the “"in vitro" % decrease elasticity (G')” value was determined as 6% and the “"in vitro" % decrease viscosity (.eta.)” value was found to be 9%. Besides, the “"in vivo" fluorescein test ED50” value in the data set on respiratory tract turned out to be 300 mg/kg. Besides, the “Acute toxicity LD50 approx.” value in the data set with mice was more than 4000 mg/kg.

`CCC1SCCN1C(=O)C1C2C=CC(C2)C1C(=O)O` (centres unmarked) [Compound 2, 3-[3-[(2-Ethyl)-thiazolidine]carbonyl]-bicyclo-[2,2,1]-hepta-5-ene-2-carboxylic acid]: in the data set with porcine gastric mucine, the “"in vitro" % decrease elasticity (G')” value stood at 33% and the “"in vitro" % decrease viscosity (.eta.)” value came to 58%. The LD50 at 168 h in data set [1] was approximately 3000 mg/kg.

The compound `O=C(O)C1C2C=CC(C2)C1C(=O)N1CCSC1` (centres unmarked) [Compound 3, 3-[(3-thiazolidyl)-carbonyl]-bicyclo-[2,2,1]-hepta-5-ene-2-carboxylic acid] had an ED50 in the data set on respiratory tract of 170 mg/kg. In addition, in data set [1], the LD50 at 168 h is approximately 1500 mg/kg.

Consider `O=C(O)CCC(=O)N1CCSC1` [Compound 4, 4-oxo-4-(3-thiazolidyl)-butanoic acid], for which the LD50 at 168 h in data set [1] was approximately 4000 mg/kg.

Take `O=C(CCC(=O)N1CCSC1)N1CCSC1` [Compound 7, 1,4-Bis-(3-thiazolidyl)-1,4-dioxo-butane]: the ED50 in the data set with respiratory tract is approximately 750 mg/kg. Moreover, the LD50 at 168 h in data set [1] was approximately 3000 mg/kg.

With `N[C@@H](CSCC(=O)N1CCSC1)C(=O)O` [Compound 8, 2-Amino-3-[[(3-thiazolidyl)-carbonylmethyl]thio]propionic acid], the LD50 at 168 h in data set [1] is more than 4000 mg/kg.

In the case of `CC(SCC(=O)N1CCSC1)C(=O)NCC(=O)O` (centres unmarked) [Compound 9, 2-[2-[(3-thiazolidyl)carbonylmethylthio]-propionamide]acetic acid], in the data set on porcine gastric mucine, the “"in vitro" % decrease elasticity (G')” value was determined as 21% and the “"in vitro" % decrease viscosity (.eta.)” value was 40%. For the same compound, the LD50 at 168 h in data set [1] is more than 4000 mg/kg.

Regarding `O=C(O)CCC(=O)N1CCSC1` [Compound 10, 4-oxo-4-(3-thiazolidyl)butanoic acid sodium salt], in the data set on mice (sodium salt, 10080 min), the “Acute toxicity LD50 approx.” value was more than 4000 mg/kg.

On to `CC1(C(=O)N2CCSC2)CCC(C(=O)O)C1(C)C` (centres unmarked) [Compound 12, -3-[(3-thiazolidyl)-carbonyl]-2,2,3-trimethyl-cyclopentanecarboxylic acid lysine salt], for which, in the data set on porcine gastric mucine, the “"in vitro" % decrease elasticity (G')” value came out at 13% and the “"in vitro" % decrease viscosity (.eta.)” value is listed as 0%. This compound came in with an ED50 in the data set on respiratory tract of 310 mg/kg. For the same compound, the LD50 at 168 h in data set [1] is more than 4000 mg/kg.

Take `CC(=O)N[C@@H](CS)C(=O)O` [N-acetyl-L-cysteine, N--acetyl-L-cysteine, reference compound]: in the data set with porcine gastric mucine, the “"in vitro" % decrease elasticity (G')” value is 39% and the “"in vitro" % decrease viscosity (.eta.)” value was found to be 53%.
